One may read the IC50 as the point on the concentration scale where inhibition reaches its midpoint. A word on the melting point: it is the temperature of the solid-liquid transition.

These results are taken from PMC6274419, “Synthesis and Anticancer Activities of Glycyrrhetinic Acid Derivatives” (Molecules, 2016).

The structures appear in SMILES notation.

In one data set the test system is hTERT-RPE1 cells. As to the kind of experiment: MTT cytotoxicity assay, hTERT-RPE1 normal cells. The format is cell-based, human. Conditions: normal human retinal pigment epithelial cell line hTERT-RPE1, MTT method, 24 h treatment, mean ± SD; read-out: IC50 hTERT-RPE1. The procedure: (§1) The anticancer activities of compounds 17–24, 41–56 against MCF-7, MDA-MB-231 and hTERT-RPE1 cells were determined in vitro by an MTT assay. […] The data was calculated and presented as IC50 values in Table 1.
(§2) The cytotoxicities of the compounds were evaluated by the MTT assay, which is based on the conversion of MTT to formazan crystals by mitochondrial dehydrogenases. […] The medium was incubated with 20 μL of 5 mg/mL MTT solution for 3 h in a humidified incubator containing 5% CO2. The purple coloured formazan crystals formed in the wells were dissolved in DMSO and their absorbances were measured at 570 nm with a microplate reader. Cell viability was expressed as a percentage of the value in control cultures.

Another data set has as its system MDA-MB-231 cells. Put plainly: MTT cytotoxicity assay, MDA-MB-231. The format is cell-based, human. Conditions: human breast cancer cell line MDA-MB-231, MTT method, 24 h treatment, mean ± SD; read-out: IC50 MDA-MB-231. As to the method: The data was calculated and presented as IC50 values in Table 1.
as §2
(Tetrazolium assays rely on reduction of a dye to a coloured formazan, in cell work by metabolically active cells.)

Another data set deals with MCF-7 cells. As to the kind of experiment: MTT cytotoxicity assay, MCF-7. The format is cell-based, human. Conditions: MCF7; human breast cancer cell line MCF-7, MTT method, 24 h treatment, mean ± SD; read-out: IC50 MCF-7. The procedure: as §1, §2

In turn, `COC(=O)/C=C/c1ccc(OC(=O)[C@@]2(C)CC[C@]3(C)CC[C@]4(C)C(=CC(=O)[C@@H]5[C@@]6(C)CC[C@H](O)C(C)(C)[C@@H]6CC[C@]54C)[C@@H]3C2)c(OC)c1` [Compound 17, Ferulic acid methyl ester 3β-hydroxy-11-oxo-olean-12-en-30-oate] registered a melting point of 229 to 231 °C. The IC50 in the data set with hTERT-RPE1 cells was found to be 17.3 ± 1.21 µM. Also, in the data set on MDA-MB-231 cells, the half-maximal inhibitory concentration (IC50) is 5.03 ± 0.82 µM. In the data set with MCF-7 cells, the concentration for half-maximal inhibition (IC50) was determined as 13.6 ± 0.93 µM.

The compound `CCOC(=O)/C=C/c1ccc(OC(=O)[C@@]2(C)CC[C@]3(C)CC[C@]4(C)C(=CC(=O)[C@@H]5[C@@]6(C)CC[C@H](O)C(C)(C)[C@@H]6CC[C@]54C)[C@@H]3C2)c(OC)c1` [Compound 18, Ferulic acid ethyl ester 3β-hydroxy-11-oxo-olean-12-en-30-oate] had a melting point of 224 to 226 °C. For the same compound, the IC50 in the data set with hTERT-RPE1 cells came out at 22.8 ± 0.97 µM. In addition, in the data set on MDA-MB-231 cells, the IC50 came out at 8.14 ± 0.76 µM. The IC50 in the data set on MCF-7 cells is 22.5 ± 1.26 µM.

For `COC(=O)/C=C/c1ccc(OC(=O)[C@@]2(C)CC[C@]3(C)CC[C@]4(C)C(=CC(=O)[C@@H]5[C@@]6(C)CC[C@H](O)C(C)(C)[C@@H]6CC[C@]54C)[C@@H]3C2)cc1` [Compound 19, trans-4-Hydroxycinnamic acid methyl ester 3β-hydroxy-11-oxo-olean-12-en-30-oate], the melting point is 202 to 205 °C. For the same compound, the IC50 in the data set on hTERT-RPE1 cells was found to be 29.6 ± 1.16 µM. In addition, the IC50 with MDA-MB-231 cells amounted to 14.4 ± 0.52 µM. Further, in the data set on MCF-7 cells, the IC50 came to 20.3 ± 1.47 µM.

With `CCOC(=O)/C=C/c1ccc(OC(=O)[C@@]2(C)CC[C@]3(C)CC[C@]4(C)C(=CC(=O)[C@@H]5[C@@]6(C)CC[C@H](O)C(C)(C)[C@@H]6CC[C@]54C)[C@@H]3C2)cc1` [Compound 20, trans-4-Hydroxycinnamic acid ethyl ester 3β-hydroxy-11-oxo-olean-12-en-30-oate], the melting point lay in the range of 195 to 196 °C. Also, in the data set with hTERT-RPE1 cells, the IC50 is 28.4 ± 0.87 µM. For the same compound, the 50% inhibitory concentration (IC50) with MDA-MB-231 cells was found to be 14.5 ± 0.58 µM. Besides, in the data set with MCF-7 cells, the IC50 was determined as 24.4 ± 1.36 µM.

As to `COC(=O)/C=C/c1ccc(OC)c(OC(=O)[C@@]2(C)CC[C@]3(C)CC[C@]4(C)C(=CC(=O)[C@@H]5[C@@]6(C)CC[C@H](O)C(C)(C)[C@@H]6CC[C@]54C)[C@@H]3C2)c1` [Compound 21, Isoferulic acid methyl ester 3β-hydroxy-11-oxo-olean-12-en-30-oate], the melting point fell in the range of 215 to 217 °C. For the same compound, the IC50 in the data set with hTERT-RPE1 cells was found to be 18.6 ± 0.54 µM. For the same compound, in the data set with MDA-MB-231 cells, the IC50 was found to be 7.31 ± 0.16 µM. Also, the concentration for half-maximal inhibition (IC50) in the data set with MCF-7 cells was 8.54 ± 0.67 µM.

`CCOC(=O)/C=C/c1ccc(OC)c(OC(=O)[C@@]2(C)CC[C@]3(C)CC[C@]4(C)C(=CC(=O)[C@@H]5[C@@]6(C)CC[C@H](O)C(C)(C)[C@@H]6CC[C@]54C)[C@@H]3C2)c1` [Compound 22, Isoferulic acid ethyl ester 3β-hydroxy-11-oxo-olean-12-en-30-oate] came in with a melting point of 210 to 213 °C. Moreover, in the data set with hTERT-RPE1 cells, the IC50 came to 21.1 ± 0.73 µM. The concentration for half-maximal inhibition (IC50) with MDA-MB-231 cells was 9.41 ± 1.03 µM. Besides, the IC50 in the data set on MCF-7 cells was 19.3 ± 1.01 µM.

`COC(=O)/C=C/c1cccc(OC(=O)[C@@]2(C)CC[C@]3(C)CC[C@]4(C)C(=CC(=O)[C@@H]5[C@@]6(C)CC[C@H](O)C(C)(C)[C@@H]6CC[C@]54C)[C@@H]3C2)c1` [Compound 23, trans-3-Hydroxycinnamic acid methyl ester 3β-hydroxy-11-oxo-olean-12-en-30-oate] gave a melting point of 188 to 190 °C. Further, the IC50 in the data set on hTERT-RPE1 cells was 24.1 ± 0.88 µM. For the same compound, in the data set with MDA-MB-231 cells, the 50% inhibitory concentration (IC50) was 20.8 ± 1.2 µM. In addition, the IC50 with MCF-7 cells is 14.9 ± 0.75 µM.

`CCOC(=O)/C=C/c1cccc(OC(=O)[C@@]2(C)CC[C@]3(C)CC[C@]4(C)C(=CC(=O)[C@@H]5[C@@]6(C)CC[C@H](O)C(C)(C)[C@@H]6CC[C@]54C)[C@@H]3C2)c1` [Compound 24, trans-3-Hydroxycinnamic acid ethyl ester 3β-hydroxy-11-oxo-olean-12-en-30-oate] came in with a melting point of 173 to 175 °C. Further, the IC50 in the data set on hTERT-RPE1 cells is 22.9 ± 0.68 µM. For the same compound, the half-inhibitory concentration (IC50) with MDA-MB-231 cells came out at 23.2 ± 1.07 µM. The 50% inhibitory concentration (IC50) in the data set on MCF-7 cells amounted to 19.3 ± 0.98 µM.
